This is an account of results in US20100267561A1, “HERBICIDAL PYRIDAZINONE DERIVATIVES” (priority 2007, published 2010).

In data set [1] the test system is Canada horseweed (Conyza canadensis). Kind of data set: Test E pre-/postemergence plant response. Format: in vivo. The settings on record: Postemergence, scale 0 to 100. Summed up: (§1)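 Seeds were planted and treated preemergence with compound formulated in a non-phytotoxic solvent mixture containing surfactant; postemergence sprays in the same formulation went onto plants 2 to 18 cm tall (1- to 4-leaf stage). After 14 to 21 days in a greenhouse, injury versus untreated controls was rated visually, 0 (no effect) to 100 (complete control).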

In data set [2] the test system is common ragweed (Ambrosia elation). Kind of data set: Test E pre-/postemergence plant response. It is filed as in vivo. The settings on record: scale 0 to 100. Summed up:
as §1

The test system of data set [3] is field bindweed (Convolvulus arvensis). Kind of data set: Test E pre-/postemergence plant response. Format: in vivo. To be noted: scale 0 to 100. Summed up: as §1
For data set [4], the system named is spanishneedles (Bidens bipinnata). In words: Test E pre-/postemergence plant response. Format: in vivo. To be noted: scale 0 to 100. Summed up: as §1
Data set [5] has as its system wild oat (AVEFA, Avena fatua). In words: Test F mixtures with safener cloquintocet-mexyl, pre-/postemergence plant response. Format: in vivo. The settings on record: applied alone.
The test system of data set [6] is winter wheat (TRZAW, Triticum aestivum). The description is as above. Format: in vivo. To be noted: applied alone.
Data set [7] shares this test system. Kind of data set: Test G mixtures of Compound 26 with crop safeners, postemergence plant response. Format: in vivo. The settings on record: applied alone. The procedure: This test evaluated the effect of mixtures of Compound 26 with commercial crop safeners cloquintocet-mexyl, mefenpyr-diethyl, and fenchlorazole-ethyl on three plant species. Seeds of winter wheat (TRZAW, Triticum aestivum), winter barley (HORVX, Hordeum vulgare), and wild oat (AVEFA, Avena fatua) (a weed) were planted into a silt loam soil. Plants from these seeds were treated postemergence using test chemicals formulated in a non-phytotoxic solvent mixture that included a surfactant. Plants ranged in height from 6 to 10 cm (2- to 3-leaf stage).
Plants were grown in a greenhouse using supplemental lighting to maintain a photoperiod of about 14 hours; daytime and nighttime temperatures were about 22-26° C. and 15-19° C., respectively. Balanced fertilizer was applied through the watering system. Treatments consisted of Compound 26 and the above mentioned safeners alone and in combination using a spray volume of 281 L/ha. Each treatment was replicated four times. Treated plants and controls were maintained in a greenhouse for 15 days, after which time all treated plants were compared to controls and visually evaluated. Plant response ratings were calculated as the means of the four replicates based on a scale of 0 to 100 where 0 is no effect and 100 is complete control and are summarized in Tables G1 to G3. Because the safeners alone caused no injury at the rates tested, the expected effect of a mixture of Compound 26 with a safener is the same as the observed effect of Compound 26 alone.
The highest application rate of each safener was tested alone to confirm the absence of herbicidal activity on the test species when appled postemergence at 125 g ai/ha. Therefore, an extrapolated result of zero for each safener alone at 16, 31, or 62 g ai/ha was used to calculate the mixture response of Compound 26 and these safener application rates.

In the case of `CCc1cc(-c2ccc(C(F)(F)F)cc2)nn1-c1c(O)cnn(C)c1=O` [Compound 11, 4-[5-ethyl-3-[4-(trifluoromethyl)phenyl]-1H-pyrazol-1-yl]-5-hydroxy-2-methyl-3(2H)-pyridazinone], the melting point is 202 to 204 °C. Besides, the “Plant response rating, Horseweed” value in data set [1] (4 g ai/ha) was 0. Further, the “Plant response rating, Horseweed” value in data set [1] (8 g ai/ha) is on record as 0. Moreover, the “Plant response rating, Horseweed” value in data set [1] (16 g ai/ha) was 0. Besides, the “Plant response rating, Horseweed” value in data set [1] (31 g ai/ha) came to 0. The “Plant response rating, Ragweed” value in data set [2] (4 g ai/ha, Postemergence) worked out at 0. Besides, in data set [2] (16 g ai/ha, Preemergence), the “Plant response rating, Ragweed” value worked out at 0. Further, the “Plant response rating, Ragweed” value in data set [2] (31 g ai/ha, Preemergence) stood at 0. For the same molecule, the “Plant response rating, Ragweed” value in data set [2] (Postemergence, 8 g ai/ha) was 0. Also, the “Plant response rating, Ragweed” value in data set [2] (Postemergence, 16 g ai/ha) is on record as 0. The “Plant response rating, Ragweed” value in data set [2] (Postemergence, 31 g ai/ha) is listed as 0. For the same molecule, in data set [2] (Preemergence, 4 g ai/ha), the “Plant response rating, Ragweed” value came out at 0. Also, the “Plant response rating, Field Bindweed” value in data set [3] (4 g ai/ha, Postemergence) amounted to 0. In addition, the “Plant response rating, Field Bindweed” value in data set [3] (8 g ai/ha, Preemergence) was 0. Further, the “Plant response rating, Field Bindweed” value in data set [3] (16 g ai/ha, Preemergence) worked out at 0. For the same molecule, in data set [3] (31 g ai/ha, Preemergence), the “Plant response rating, Field Bindweed” value amounted to 0. Also, the “Plant response rating, Field Bindweed” value in data set [3] (Postemergence, 8 g ai/ha) was 0. The “Plant response rating, Field Bindweed” value in data set [3] (Postemergence, 16 g ai/ha) amounted to 0. In data set [3] (Postemergence, 31 g ai/ha), the “Plant response rating, Field Bindweed” value came out at 0. Besides, in data set [3] (Preemergence, 4 g ai/ha), the “Plant response rating, Field Bindweed” value turned out to be 0. In addition, in data set [4] (4 g ai/ha, Postemergence), the “Plant response rating, Spanishneedles” value is on record as 0. In data set [4] (16 g ai/ha, Preemergence), the “Plant response rating, Spanishneedles” value came to 0. Further, the “Plant response rating, Spanishneedles” value in data set [4] (31 g ai/ha, Preemergence) came out at 0. Further, the “Plant response rating, Spanishneedles” value in data set [4] (Postemergence, 8 g ai/ha) is on record as 0. For the same molecule, the “Plant response rating, Spanishneedles” value in data set [4] (Postemergence, 16 g ai/ha) came to 0. Also, the “Plant response rating, Spanishneedles” value in data set [4] (Postemergence, 31 g ai/ha) was determined as 0. Moreover, the “Plant response rating, Spanishneedles” value in data set [4] (Preemergence, 4 g ai/ha) was found to be 0. Further, in data set [5] (postemergence, 4 g a.i./ha), the “AVEFA Obsd. (observed effect) plant response rating, scale 0 to 100” value was determined as 75. Further, the “AVEFA Obsd. (observed effect) plant response rating, scale 0 to 100” value in data set [5] (postemergence, 8 g a.i./ha) is reported as 97. Also, the “AVEFA Obsd. (observed effect) plant response rating, scale 0 to 100” value in data set [5] (postemergence, 16 g a.i./ha) worked out at 98. Also, in data set [5] (preemergence, 4 g a.i./ha), the “AVEFA Obsd. (observed effect) plant response rating, scale 0 to 100” value stood at 58. The “AVEFA Obsd. (observed effect) plant response rating, scale 0 to 100” value in data set [5] (preemergence, 8 g a.i./ha) is 77. Further, the “AVEFA Obsd. (observed effect) plant response rating, scale 0 to 100” value in data set [5] (preemergence, 16 g a.i./ha) came to 93. In addition, the “TRZAW Obsd. (observed effect) plant response rating, scale 0 to 100” value in data set [6] (postemergence, 4 g a.i./ha) is recorded as 18. Moreover, the “TRZAW Obsd. (observed effect) plant response rating, scale 0 to 100” value in data set [6] (postemergence, 8 g a.i./ha) came out at 3. Moreover, the “TRZAW Obsd. (observed effect) plant response rating, scale 0 to 100” value in data set [6] (postemergence, 16 g a.i./ha) turned out to be 32. Besides, in data set [6] (preemergence, 4 g a.i./ha), the “TRZAW Obsd. (observed effect) plant response rating, scale 0 to 100” value amounted to 32. Further, the “TRZAW Obsd. (observed effect) plant response rating, scale 0 to 100” value in data set [6] (preemergence, 8 g a.i./ha) is listed as 72. Moreover, the “TRZAW Obsd. (observed effect) plant response rating, scale 0 to 100” value in data set [6] (preemergence, 16 g a.i./ha) was found to be 92.
As for `CCc1cc(-c2ccc(C(F)(F)F)cc2)nn1-c1c(OS(C)(=O)=O)cnn(C)c1=O` [Compound 19], the “Plant response rating, Horseweed” value in data set [1] (4 g ai/ha), in data set [1] (8 g ai/ha), in data set [1] (16 g ai/ha) and in data set [1] (31 g ai/ha) was 0 each time. Further, the “Plant response rating, Ragweed” value in data set [2] (4 g ai/ha, Postemergence) was 0; in data set [2] (16 g ai/ha, Preemergence), 0; in data set [2] (31 g ai/ha, Preemergence) it was 0; in data set [2] (Postemergence, 8 g ai/ha), 0; in data set [2] (Postemergence, 16 g ai/ha) it was 0; in data set [2] (Postemergence, 31 g ai/ha) it was 0. Also, in data set [2] (Preemergence, 4 g ai/ha), the “Plant response rating, Ragweed” value is listed as 0. Moreover, the “Plant response rating, Field Bindweed” value in data set [3] (4 g ai/ha, Postemergence) came to 0; in data set [3] (8 g ai/ha, Preemergence), 0; in data set [3] (16 g ai/ha, Preemergence), 0; in data set [3] (31 g ai/ha, Preemergence) it was 0; in data set [3] (Postemergence, 8 g ai/ha), 0; in data set [3] (Postemergence, 16 g ai/ha) it was 0. The “Plant response rating, Field Bindweed” value in data set [3] (Postemergence, 31 g ai/ha) is recorded as 0; in data set [3] (Preemergence, 4 g ai/ha) it was 0. In addition, the “Plant response rating, Spanishneedles” value in data set [4] (4 g ai/ha, Postemergence) turned out to be 0; in data set [4] (16 g ai/ha, Preemergence), 0; in data set [4] (31 g ai/ha, Preemergence) it was 0; in data set [4] (Postemergence, 8 g ai/ha), 0; in data set [4] (Postemergence, 16 g ai/ha), 0; in data set [4] (Preemergence, 4 g ai/ha) it was 0.
On to “4-[3-(4-chlorophenyl)-5-methyl-1H-pyrazol-3-yl]-5-hydroxy-2-methyl-3(2H)-pyridazinone [Compound 3]”, for which the “AVEFA Obsd. (observed effect) plant response rating, scale 0 to 100” value is listed as 27 in data set [5] (postemergence, 4 g a.i./ha); 67 in data set [5] (postemergence, 8 g a.i./ha); 83 in data set [5] (postemergence, 16 g a.i./ha); 0 in data set [5] (preemergence, 4 g a.i./ha); 35 in data set [5] (preemergence, 8 g a.i./ha); 60 in data set [5] (preemergence, 16 g a.i./ha). Besides, the “TRZAW Obsd. (observed effect) plant response rating, scale 0 to 100” value in data set [6] (postemergence, 4 g a.i./ha) is reported as 0; in data set [6] (postemergence, 8 g a.i./ha), 0; in data set [6] (postemergence, 16 g a.i./ha), 22; in data set [6] (preemergence, 4 g a.i./ha) it was 0; in data set [6] (preemergence, 8 g a.i./ha) it was 33; in data set [6] (preemergence, 16 g a.i./ha) it was 77.
In turn, `CCc1c(C)c(-c2ccc(Cl)cc2)nn1-c1c(O)cnn(C)c1=O` [Compound 26, 4-[3-(4-chlorophenyl)-5-ethyl-4-methyl-1H-pyrazol-1-yl]-5-hydroxy-2-methyl-3(2H)-pyridazinone] showed a melting point of 227 to 229 °C. In data set [7] (62 g a.i./ha), the “TRZAW Obsd. (observed effect) plant response rating, scale 0 to 100” value is on record as 10. Moreover, the “TRZAW Obsd. (observed effect) plant response rating, scale 0 to 100” value in data set [7] (125 g a.i./ha) was found to be 9. Also, the “TRZAW Obsd. (observed effect) plant response rating, scale 0 to 100” value in data set [7] (250 g a.i./ha) amounted to 36.

What is called melting point is the temperature of the solid-liquid transition.
